According to patent US4698341A, “Use of 1,6-naphthyridinone derivatives in treating pulmonary thrombosis” (Godecke Aktiengesellschaft, priority 1983, dated 1987):
Like-named read-outs stand apart in the source and are kept apart here.

Experiments:
[1] = system: Collagen-induced thrombocyte aggregation (platelet-rich plasma); experiment: Collagen-induced thrombocyte aggregation in vitro (rat); type: cell-based, rat (male Sprague Dawley SIV 50); conditions: read-out: IC50 value, collagen-induced thrombocyte aggregation
Experimental: (§1) Collagen or ADP-induced thrombocyte aggregation in vitro (rat)
(§2) The test was carried out according to the method of BORN (Nature 194, 927-929, 1962). […] Blood was withdrawn from the postorbital venous plexus under ether anesthesia. Nine aliquots of blood were mixed with one aliquot of 3.8% (w/v) tri-Na-citrate solution. After low speed centrifugation of the mixture at room temperature, the platelet-rich plasma (PRP corresponding to the erythrocyte-frree supernatant) was removed and adjusted to a standard concentration of 400 000/μl. A universal aggregometer (Braun, Melsungen) connected with an Eppendorf photometer 1100M (Netheler and Hinz, Hamburg) was used as a measuring instrument. In this test portions of 700 μl of platelet-rich plasma (PRP) were equilibrated in the aggregometer at 37° C. for five minutes and then mixed with 58 μl of the test substance solution or with a 0.9% NaCl solution (corresponding to the blank value). After an incubation time of three minutes, the addition of 35 μl collagen suspension (collagen reagent HORM(®), Hormon Chemie, Munich) or 20 μl ADP solution (end concentration in the test 1×10^-5 mol/liter) causes aggregation. A compensation recorder recorded the change in transmission during the following 15 minutes.
(§3) The largest change in transmission occurring in this period was called amplitude (amp) of the aggregation curve. Aggregation-inhibiting substances produce a decrease of this amplitude; the inhibitory effect (E) of a substance is calculated according to the following formula:
(§4) E=(Ampbank value -AMPtest substance)/Ampblank value
(§5) Dose-effect curves were drawn for calculating the IC50 values.

[2] = system: ADP-induced thrombocyte aggregation (platelet-rich plasma); experiment: ADP-induced thrombocyte aggregation in vitro (rat); type: cell-based, rat (male Sprague Dawley SIV 50); conditions: read-out: IC50 value, ADP-induced thrombocyte aggregation
Experimental: as §1, §2, §3, §4, §5

tenia coli (guinea pig) = experiment: Ca2+ effect on the smooth muscles, tenia coli, inhibition of contraction amplitude; type: cell-based; conditions: Cavia porcellus, 10 min, 32° C.; for inhibition: 3·10^-5 mol/l
Experimental: 1. Ca^2+ effect on the smooth muscles
Approximately 10 mm long, freshly isolated pieces of the tenia coli (guinea pig) were encircled at both ends with threads and connected with a mechanico-technical transducer in the organ bath (32° C., bubbled through with carbogen). Five to ten mN (0.5-1 p) were selected as mechanical pretension. […] This solution was exchanged for K+-rich and Ca++-free solution (40 mmol/l) KCl for depolarization of the cell membrane, the NaCl concentration being decreased correspondingly. One mmol/l CaCl2 was added to the nutrient solution under equilibrium conditions, resulting in a contraction of the muscle preparation. After reaching the new equilibration the test substance was added to the organ bath.
The percentage inhibition of the contraction amplitude after a ten-minute time of action of the test substance, related to the amplitude prior to administration of the substance, was calculated as substance effect. Each substance was tested in two preparations.

[3] = system: left atrium of guinea pig; experiment: Isolated left atrium of guinea pigs, inhibition of contraction amplitude; type: cell-based; conditions: Cavia porcellus; approximate values from four atriums, 35° C., 100 imp/min
Experimental: 2. Isolated atriums of guinea pigs
In a thermostated (35° C.) dissecting dish containing modified nutrient solution acc. to Krebs-Henseleit the left atrium was cautiously separated from the ventricle myocardium by means of scissors and a needle with thread passed through the apex of the atrium and knotted. Subsequently, the basis of the atrium was fastened to the hook of a preparation holder and transferred to a thermostated organ bath containing nutrient solution (25 ml, 35° C.). In the organ bath the thread at the apex of the atrium was attached to a mechanicoelectric transducer. Electrical stimulation was effected supramaximally with a frequency of 100 imp/min (stimulation range 2.5 msec). The hook of the preparation holder represented an electrode, whereas the second electrode was designed as field electrode in the preparation holder parallel to the tensioned atrium.
The substances were cumulatively added to the organ bath at intervals of four minutes.

[4] = rat PRP 400 000/μl, 37° C., collagen, Arith. M±S.D.
[5] = rat PRP 400 000/μl, 37° C., ADP 1×10^-5 mol/liter, Arith. M±S.D.

Row | SMILES | IC50 [1, 4] | IC50 [2, 5] | IC50 [3] | inhibition (tenia coli (guinea pig)) | IC50 ([1]; Rattus norvegicus) | IC50 ([2]; Rattus norvegicus) | inhibition at 1 µM (tenia coli (guinea pig); 10^-6 mol/l)
1 | CCOC(=O)C1=C(C)Nc2ccn(CCCN(C)C)c(=O)c2C1c1cccc(Cl)c1 (stereo not drawn) [Example 4 b., 1,4,5,6-Tetrahydro-4-(3-chlorophenyl)-6-(3-dimethylaminopropyl)-2-methyl-5-oxo-1,6-naphthyridine-3-carboxylic acid ethyl ester] | 160 ± 10 µM | 410 ± 50 µM | 300 µM | 57 ± 7% |  |  | 
2 | CCOC(=O)C1=C(C)Nc2ccn(CCCN3CCCCC3)c(=O)c2C1c1ccccc1Cl (stereo not drawn) [Example 4 e., 1,4,5,6-Tetrahydro-4-(2-chlorophenyl)-2-methyl-5-oxo-6-(3-piperidinopropyl)-1,6-naphthyridine-3-carboxylic acid ethyl ester.1/2 ethyl acetate] | 160 ± 20 µM | 330 ± 20 µM | 100 µM | 81 ± 5% |  |  | 
3 | COc1ccc(CCN(C)CCCC(C#N)(c2ccc(OC)c(OC)c2)C(C)C)cc1OC (stereo not drawn) [Verapamil, reference compound] |  |  | 2 µM |  | 210 ± 20 µM | 560 ± 60 µM | 100%

More lines, in order of falling IC50 [1, 4], values ahead:

Row | IC50 [1, 4] | IC50 [2, 5] | IC50 [3] | SMILES | inhibition (tenia coli (guinea pig)) | IC50 ([1]; Rattus norvegicus) | IC50 ([2]; Rattus norvegicus) | inhibition at 1 µM (tenia coli (guinea pig); 10^-6 mol/l)
4 | 160 ± 10 µM | 510 ± 40 µM | 300 µM | CCOC(=O)C1=C(C)Nc2ccn(CCCN(C)C)c(=O)c2C1c1cccc([N+](=O)[O-])c1 (stereo not drawn) [Example 2, 1,4,5,6-Tetrahydro-6-(3-dimethylaminopropyl)-2-methyl-4-(3-nitrophenyl)-5-oxo-1,6-naphthyridine-3-carboxylic acid ethyl ester] | 88 ± 12% |  |  | 
5 | 70 ± 10 µM | 240 ± 10 µM | 100 µM | CCOC(=O)C1=C(C)Nc2ccn(CCCN3CCCCC3)c(=O)c2C1c1cccc([N+](=O)[O-])c1 (stereo not drawn) [Example 4 f., 1,4,5,6-Tetrahydro-2-methyl-4-(3-nitrophenyl)-5-oxo-6-(3-piperidinopropyl)-1,6-naphthyridine-3-carboxylic acid ethyl ester] | 79 ± 3% |  |  | 
6 | 60 ± 10 µM | 180 ± 10 µM | 300 µM | CCOC(=O)C1=C(C)Nc2ccn(CCCN3CCCCC3)c(=O)c2C1c1cccc(Cl)c1 (stereo not drawn) [Example 4 c., 1,4,5,6-Tetrahydro-4-(3-chlorophenyl)-2-methyl-5-oxo-6-(3-piperidinopropyl)-1,6-naphthyridine-3-carboxylic acid ethyl ester] | 44 ± 6% |  |  | 
